{
  "source": "patent US8524917B2",
  "about": "“6-substituted indole-3-carboxylic acid amide compounds having sphingosine-1-phosphate (S1P) receptor antagonist biological activity” (Allergan, Inc., priority 2007, dated 2013)",
  "biological_target": "human S1P3 receptor (Homo sapiens (Human), UniProt Q99500)",
  "sequence (Q99500 whole entry)": "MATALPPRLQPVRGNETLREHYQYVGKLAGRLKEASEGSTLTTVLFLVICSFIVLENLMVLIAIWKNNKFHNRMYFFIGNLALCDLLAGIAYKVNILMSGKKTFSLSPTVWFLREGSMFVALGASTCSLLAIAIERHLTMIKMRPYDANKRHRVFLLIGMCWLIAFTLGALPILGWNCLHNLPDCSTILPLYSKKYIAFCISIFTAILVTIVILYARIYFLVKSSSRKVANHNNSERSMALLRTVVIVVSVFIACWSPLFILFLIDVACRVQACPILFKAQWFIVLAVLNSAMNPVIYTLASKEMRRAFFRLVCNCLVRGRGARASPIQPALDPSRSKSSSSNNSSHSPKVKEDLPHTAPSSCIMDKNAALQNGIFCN",
  "assay": "Activation or block of activation of human S1P3 receptor, Ca+2 FLIPR assay",
  "format": "cell-based",
  "settings": "for IC50: read-out: S1P3 IC50",
  "description": "Compounds were assessed for their ability to activate or block activation of the human S1P3 receptor in T24 cells stably expressing the human S1P3 receptor. Ten thousand cells/well were plated into 384-well poly-D-lysine coated plates one day prior to use. The growth media for the S1P3 receptor expressing cell line was McCoy's 5A medium supplemented with 10% charcoal-treated fetal bovine serum (FBS), 1% antibiotic-antimycotic and 400 μg/ml geneticin. On the day of the experiment, the cells were washed twice with Hank's Balanced Salt Solution supplemented with 20 mM HEPES (HBSS/Hepes buffer). […] Extracellular dye was removed by washing the cell plates four times prior to placing the plates in the FLIPR (Fluorometric Imaging Plate Reader, Molecular Devices). Ligands were diluted in HBSS/Hepes buffer and prepared in 384-well microplates. The positive control, Sphingosine-1-Phosphate (S1P), was diluted in HBSS/Hepes buffer with 4 mg/ml fatty acid free bovine serum albumin. The FLIPR transferred 12.5 μl from the ligand microplate to the cell plate and took fluorescent measurements for 75 seconds, taking readings every second, and then for 2.5 minutes, taking readings every 10 seconds. […] IC50 values were determined through a […] analysis using the Levenburg Marquardt algorithm.",
  "key": {"[1]": {"settings": "T24 cells stably expressing the human S1P3 receptor, FLIPR Ca+2 response, 0.61 nM to 10,000 nM"}, "[2]": {"settings": "T24 cells stably expressing the human S1P3 receptor, value in brackets"}},
  "note": "Read-outs that look alike come from different tables or passages of the source.",
  "data": [
    {"compound": "CC(C)c1c(C(=O)NCc2ccc(F)c(F)c2)c2ccc(NC3=NCCS3)cc2n1Cc1ccccn1", "note": "[Compound 184, N-(3,4-Difluorobenzyl)-6-(4,5-dihydrothiazol-2-ylamino)-2-isopropyl-1-(pyridin-2-ylmethyl)-1H-indole-3-carboxamide]", "values": [
      {"measurement": "IC50", "setting": "[1]", "value": "> 8300", "unit": "nM"},
      {"measurement": "S1P3 (% inh)", "setting": "[2]", "value": 80, "unit": "%"}
    ]},
    {"compound": "CCOC(=O)c1ccc2c(C(=O)NCc3ccc(F)c(F)c3)c(C(C)C)n(Cc3ncco3)c2c1", "note": "[Compound 47, Ethyl 3-(3,4-Difluorobenzylcarbamoyl)-2-isopropyl-1-(oxazol-2-ylmethyl)-1H-indole-6-carboxylate]", "values": [
      {"measurement": "IC50", "setting": "[1]", "value": 350, "unit": "nM"},
      {"measurement": "S1P3 (% inh)", "setting": "[2]", "value": 100, "unit": "%"}
    ]},
    {"compound": "CCC(=O)Oc1ccc2c(C(=O)NCc3ccc(F)c(F)c3)c(C(C)C)n(Cc3ccccc3)c2c1", "note": "[Compound 24, 1-Benzyl-3-(3,4-difluorobenzylcarbamoyl)-2-isopropyl-1H-indol-6-yl Propionate]", "values": [
      {"measurement": "S1P3 (% inh)", "value": "20 nM (100) %"},
      {"measurement": "IC50", "value": 20, "unit": "nM"}
    ]},
    {"compound": "CC(C)c1c(C(=O)NCc2ccc(F)c(F)c2)c2ccc(/C=N/O)cc2n1Cc1ccccc1", "note": "[Compound 55, (E)-1-Benzyl-N-(3,4-difluorobenzyl)-6-((hydroxyimino)methyl)-2-isopropyl-1H-indole-3-carboxamide]", "values": [
      {"measurement": "IC50", "setting": "[1]", "value": 234, "unit": "nM"},
      {"measurement": "S1P3 (% inh)", "setting": "[2]", "value": 100, "unit": "%"}
    ]},
    {"compound": "CCOC(=O)c1ccc2c(C(=O)NCc3cccc(F)c3)c(C(C)C)n(Cc3ccccc3)c2c1", "values": [
      {"measurement": "IC50", "setting": "[1]", "value": 42, "unit": "nM"},
      {"measurement": "S1P3 (% inh)", "setting": "[2]", "value": 99, "unit": "%"}
    ]},
    {"compound": "CC(C)c1c(C(=O)NCc2ccc(F)c(F)c2)c2ccc(CN(C)C)cc2n1Cc1ccccc1", "values": [
      {"measurement": "IC50", "setting": "[1]", "value": 990, "unit": "nM"},
      {"measurement": "S1P3 (% inh)", "setting": "[2]", "value": 98, "unit": "%"}
    ]},
    {"compound": "CC(=O)Oc1ccc2c(C(=O)NCc3ccc(F)c(F)c3)c(C(C)C)n(Cc3ccccc3)c2c1", "note": "[Compound 23, 1-Benzyl-3-(3,4-difluorobenzylcarbamoyl)-2-isopropyl-1H-indol-6-yl Acetate]", "values": [
      {"measurement": "S1P3 (% inh)", "value": "14 nM (100) %"},
      {"measurement": "IC50", "value": 14, "unit": "nM"}
    ]},
    {"compound": "Cc1cc(Cn2c(C(C)C)c(C(=O)NCc3ccc(F)c(F)c3)c3ccc(O)cc32)no1", "note": "[Compound 218, N-(3,4-Difluorobenzyl)-6-hydroxy-2-isopropyl-1-((5-methylisoxazol-3-yl)methyl)-1H-indole-3-carboxamide]", "values": [
      {"measurement": "IC50", "setting": "[1]", "value": 5400, "unit": "nM"},
      {"measurement": "S1P3 (% inh)", "setting": "[2]", "value": 67, "unit": "%"}
    ]},
    {"compound": "CCNC(=O)c1ccc2c(C(=O)NCc3ccc(F)c(F)c3)c(C(C)C)n(Cc3ccccc3)c2c1", "values": [
      {"measurement": "IC50", "setting": "[1]", "value": 346, "unit": "nM"},
      {"measurement": "S1P3 (% inh)", "setting": "[2]", "value": 99, "unit": "%"}
    ]},
    {"compound": "CON=C(C)c1c(C(=O)NCc2ccc(F)c(F)c2)c2ccc(OC(C)C)cc2n1Cc1ccccn1", "note": "(stereo in doubt) [Compound 111, (E)-N-(3,4-Difluorobenzyl)-6-isopropoxy-2-(1-(methoxyimino)ethyl)-1-(pyridin-2-ylmethyl)-1H-indole-3-carboxamide]", "values": [
      {"measurement": "S1P3 (% inh)", "value": "263 nM (100) %"},
      {"measurement": "IC50", "value": 263, "unit": "nM"}
    ]},
    {"compound": "CO/N=C/c1ccc2c(C(=O)NCc3ccc(F)c(F)c3)c(C(C)C)n(Cc3ccccn3)c2c1", "values": [
      {"measurement": "IC50", "setting": "[1]", "value": 137, "unit": "nM"},
      {"measurement": "S1P3 (% inh)", "setting": "[2]", "value": 100, "unit": "%"}
    ]},
    {"compound": "CC(C)c1c(C(=O)NCc2ccc(F)c(F)c2)c2ccc(N(C)C3CCCC3)cc2n1Cc1ccccc1", "note": "[Compound 189, 1-Benzyl-6-(cyclopentyl(methyl)amino)-N-(3,4-difluorobenzyl)-2-isopropyl-1H-indole-3-carboxamide]", "values": [
      {"measurement": "IC50", "setting": "[1]", "value": 87, "unit": "nM"},
      {"measurement": "S1P3 (% inh)", "setting": "[2]", "value": 100, "unit": "%"}
    ]},
    {"compound": "CC(C)c1c(C(=O)NCc2ccc(F)c(F)c2)c2ccc(/C=N/N(C)C)cc2n1Cc1ccccn1", "values": [
      {"measurement": "IC50", "setting": "[1]", "value": 93, "unit": "nM"},
      {"measurement": "S1P3 (% inh)", "setting": "[2]", "value": 100, "unit": "%"}
    ]},
    {"compound": "CC(C)c1c(C(=O)NCc2ccc(F)c(F)c2)c2ccc(OCCN(C)C)cc2n1Cc1ccccc1", "note": "[Compound 18, 1-Benzyl-N-(3,4-difluorobenzyl)-6-(2-(dimethylamino)ethoxy)-2-isopropyl-1H-indole-3-carboxamide]", "values": [
      {"measurement": "IC50", "setting": "[1]", "value": 242, "unit": "nM"},
      {"measurement": "S1P3 (% inh)", "setting": "[2]", "value": 94, "unit": "%"}
    ]},
    {"compound": "CC(C)c1c(C(=O)NCc2ccc(C(F)(F)F)nc2)c2ccc(OC3CCCC3)cc2n1Cc1ccccn1", "note": "[Compound 142, 6-(Cyclopentyloxy)-2-isopropyl-1-(pyridin-2-ylmethyl)-N-((6-(trifluoromethyl)pyridin-3-yl)methyl)-1H-indole-3-carboxamide]", "values": [
      {"measurement": "IC50", "setting": "[1]", "value": 48, "unit": "nM"},
      {"measurement": "S1P3 (% inh)", "setting": "[2]", "value": 99, "unit": "%"}
    ]},
    {"compound": "CC(C)CO/N=C/c1ccc2c(C(=O)NCc3ccc(F)c(F)c3)c(C(C)C)n(Cc3ccccc3)c2c1", "values": [
      {"measurement": "IC50", "setting": "[1]", "value": 88, "unit": "nM"},
      {"measurement": "S1P3 (% inh)", "setting": "[2]", "value": 100, "unit": "%"}
    ]},
    {"compound": "CC(C)c1c(C(=O)NCc2ccc(F)c(F)c2)c2ccc(C3=N[C@@H](C)CO3)cc2n1Cc1cccnc1", "note": "[Compound 82, (S)—N-(3,4-Difluorobenzyl)-2-isopropyl-6-(4-methyl-4,5-dihydrooxazol-2-yl)-1-(pyridin-3-ylmethyl)-1H-indole-3-carboxamide]", "values": [
      {"measurement": "IC50", "setting": "[1]", "value": 44, "unit": "nM"},
      {"measurement": "S1P3 (% inh)", "setting": "[2]", "value": 100, "unit": "%"}
    ]},
    {"compound": "CCOC(=O)c1ccc2c(C(=O)NCc3cncc(F)c3)c(C(C)C)n(Cc3ccccn3)c2c1", "note": "[Compound 49, Ethyl 3-((5-Fluoropyridin-3-yl)methylcarbamoyl)-2-isopropyl-1-(pyridin-2-ylmethyl)-1H-indole-6-carboxylate]", "values": [
      {"measurement": "IC50", "setting": "[1]", "value": 870, "unit": "nM"},
      {"measurement": "S1P3 (% inh)", "setting": "[2]", "value": 100, "unit": "%"}
    ]},
    {"compound": "CCCCOc1ccc2c(C(=O)NCc3ccc(F)c(F)c3)c(C(C)C)n(Cc3ccccc3)c2c1", "note": "[Compound 12, 1-Benzyl-6-butoxy-N-(3,4-difluorobenzyl)-2-isopropyl-1H-indole-3-carboxamide]", "values": [
      {"measurement": "IC50", "setting": "[1]", "value": 3, "unit": "nM"},
      {"measurement": "S1P3 (% inh)", "setting": "[2]", "value": 100, "unit": "%"}
    ]},
    {"compound": "CC(C)c1c(C(=O)NCc2ccc(F)c(F)c2)c2ccc(OCc3ccccc3)cc2n1Cc1ccccc1", "note": "[Compound 15, 1-Benzyl-6-(benzyloxy)-N-(3,4-difluorobenzyl)-2-isopropyl-1H-indole-3-carboxamide]", "values": [
      {"measurement": "S1P3 (% inh)", "value": "260 nM (100) %"},
      {"measurement": "IC50", "value": 260, "unit": "nM"}
    ]},
    {"compound": "CCOC(=O)c1ccc2c(C(=O)NCc3ccc(F)cc3)c(C(C)C)n(Cc3ccccn3)c2c1", "note": "[Compound 50, Ethyl 3-(4-Fluorobenzylcarbamoyl)-2-isopropyl-1-(pyridin-2-ylmethyl)-1H-indole-6-carboxylate]", "values": [
      {"measurement": "IC50", "setting": "[1]", "value": 69, "unit": "nM"},
      {"measurement": "S1P3 (% inh)", "setting": "[2]", "value": 100, "unit": "%"}
    ]},
    {"compound": "CC(C)c1c(C(=O)NCc2ccc(F)c(F)c2)c2ccc(CN3CCCC3)cc2n1Cc1ccccc1", "values": [
      {"measurement": "IC50", "setting": "[1]", "value": 362, "unit": "nM"},
      {"measurement": "S1P3 (% inh)", "setting": "[2]", "value": 93, "unit": "%"}
    ]},
    {"compound": "CC(C)Oc1ccc2c(C(=O)NCc3ccc(F)c(F)c3)c(CN(C)C)n(Cc3ccccn3)c2c1", "note": "[Compound 98, N-(3,4-Difluorobenzyl)-2-((dimethylamino)methyl)-6-isopropoxy-1-(pyridin-2-ylmethyl)-1H-indole-3-carboxamide]", "values": [
      {"measurement": "IC50", "setting": "[1]", "value": 632, "unit": "nM"},
      {"measurement": "S1P3 (% inh)", "setting": "[2]", "value": 100, "unit": "%"}
    ]},
    {"compound": "CCOC(=O)c1ccc2c(C(=O)NCc3ccc(F)cc3)c(C(C)C)n(Cc3ccccc3)c2c1", "values": [
      {"measurement": "IC50", "setting": "[1]", "value": 43, "unit": "nM"},
      {"measurement": "S1P3 (% inh)", "setting": "[2]", "value": 99, "unit": "%"}
    ]},
    {"compound": "CCCCOC(=O)c1ccc2c(C(=O)NCc3ccc(F)c(F)c3)c(C(C)C)n(Cc3ccccc3)c2c1", "values": [
      {"measurement": "IC50", "setting": "[1]", "value": 4, "unit": "nM"},
      {"measurement": "S1P3 (% inh)", "setting": "[2]", "value": 97, "unit": "%"}
    ]},
    {"compound": "CCOC(=O)c1ccc2c(C(=O)NCc3ccc(F)c(F)c3)c(C(C)C)n(Cc3cccnc3)c2c1", "note": "[Compound 46, Ethyl 3-(3,4-Difluorobenzylcarbamoyl)-2-isopropyl-1-(pyridin-3-ylmethyl)-1H-indole-6-carboxylate]", "values": [
      {"measurement": "S1P3 (% inh)", "value": "241 nM (100) %"},
      {"measurement": "IC50", "value": 241, "unit": "nM"}
    ]},
    {"compound": "CC(C)COc1ccc2c(C(=O)NCc3ccc(F)c(F)c3)c(C(C)C)n(Cc3ccccc3)c2c1", "note": "[Compound 13, 1-Benzyl-N-(3,4-difluorobenzyl)-6-isobutoxy-2-isopropyl-1H-indole-3-carboxamide]", "values": [
      {"measurement": "IC50", "setting": "[1]", "value": 1.2, "unit": "nM"},
      {"measurement": "Kb", "setting": "T24 cells stably expressing the human S1P3 receptor, second concentration in the cell, read-out: S1P3 Kb", "value": 1.6, "unit": "nM"},
      {"measurement": "S1P3 (% inh)", "setting": "[2]", "value": 100, "unit": "%"}
    ]}
  ]
}
